What is called IC50 is the concentration that inhibits the measured activity by half. Read a low IC50 as greater potency in that assay. In general, EC50 refers to the concentration needed to bring the measured effect to its halfway point.

Drawing on ChEMBL document CHEMBL1137843, “N-4-Substituted-benzyl-N'-tert-butylbenzyl thioureas as vanilloid receptor ligands: investigation on the role of methanesulfonamido group in antagonistic activity” (Bioorg Med Chem Lett, 2004), this text covers IC50 and EC50 for 20 compounds.

The target of one assay is T1, Vanilloid receptor (Rattus norvegicus, UniProt Q9ERZ8+Q9WUD2+O35433). The experiment in a line: In vitro antagonist activity at the vanilloid receptor in rat DRG neurons. Type of assay: functional.
`CNS(=O)(=O)Nc1ccc(C/N=C(\S)NCc2ccc(C(C)(C)C)cc2)cc1` gave a half-inhibitory concentration (IC50) of 2.5 µM.

`CN(c1ccc(C/N=C(\S)NCc2ccc(C(C)(C)C)cc2)cc1)S(C)(=O)=O` returned an IC50 of 2.5 µM.

Turning to `CN(C)S(=O)(=O)Nc1ccc(C/N=C(\S)NCc2ccc(C(C)(C)C)cc2)cc1`, the IC50 is 14.6 µM.

`CCCCS(=O)(=O)Nc1ccc(C/N=C(\S)NCc2ccc(C(C)(C)C)cc2)cc1` had an IC50 of 4.1 µM.

As to `CC(C)S(=O)(=O)Nc1ccc(C/N=C(\S)NCc2ccc(C(C)(C)C)cc2)cc1`, the IC50 came out at 3.8 µM.

`CCCS(=O)(=O)Nc1ccc(C/N=C(\S)NCc2ccc(C(C)(C)C)cc2)cc1` displayed an IC50 of 4.5 µM.

As to `COc1cc(C/N=C(\S)NCc2ccc(C(C)(C)C)cc2)ccc1OS(C)(=O)=O`, the IC50 came to 0.3 µM.

`CC(C)(C)c1ccc(C/N=C(\S)NCc2ccc(C(F)(F)F)cc2)cc1` gave an IC50 of 12.4 µM.

For the compound `CC(C)(C)c1ccc(C/N=C(\S)NCc2ccc(OS(C)(=O)=O)cc2)cc1`, the half-maximal inhibitory concentration (IC50) was 9.3 µM.

Take `CC(C)(C)c1ccc(C/N=C(\S)NCc2ccc(NS(N)(=O)=O)cc2)cc1`: the IC50 amounted to 1 µM.

Regarding `CCS(=O)(=O)Nc1ccc(C/N=C(\S)NCc2ccc(C(C)(C)C)cc2)cc1`, the IC50 turned out to be 1.3 µM.

Compound `CC(C)(C)c1ccc(C/N=C(\S)NCc2ccc(NS(=O)(=O)Cc3ccccc3)cc2)cc1` registered an IC50 of 1.5 µM.

As to `CC(C)(C)c1ccc(C/N=C(\S)NCc2ccc(NS(=O)(=O)CC(F)(F)F)cc2)cc1`, the IC50 is 11.7 µM.

Turning to `Oc1cc2c(cc1O)CN(C(=S)NCCc1ccc(Cl)cc1)CCC2` [CAPSAZEPINE], the IC50 turned out to be 0.65 µM.

`CC(C)(C)c1ccc(C/N=C(\S)NCc2ccc(NS(=O)(=O)C(F)(F)F)cc2)cc1` returned an IC50 of 12.4 µM.

For a further assay, the target named is T1, Vanilloid receptor. The experiment in a line: In vitro agonist activity, increased [Ca2+] influx, at vanilloid receptor of rat dorsal root ganglia (partial at 30 uM). It is filed as functional.
For `CC(C)(C)c1ccc(C/N=C(\S)NCc2ccc(O)cc2)cc1`, the EC50 was > 30 µM.

Regarding `CC(C)(C)c1ccc(C/N=C(\S)NCc2ccc(NC(=N)S)cc2)cc1`, the EC50 is > 30 µM.

The target of a further assay is T1, Vanilloid receptor. Kind of assay: In vitro agonist activity, increased [Ca2+] influx, at vanilloid receptor of rat dorsal root ganglia. Type of assay: functional.
In turn, `CC(C)(C)c1ccc(C/N=C(\S)NCc2ccc(N)cc2)cc1` registered an EC50 of 7 µM.

The target of the next assay is T1, Vanilloid receptor. The experiment in a line: In vitro antagonist activity at vanilloid receptor in rat dorsal root ganglia (partial at 30 uM). It is filed as functional.
Consider `CC(C)(C)c1ccc(C/N=C(\S)NCc2ccc(NS(=O)(=O)c3cccs3)cc2)cc1`, for which the IC50 was > 30 µM.

`CC(C)(C)c1ccc(C/N=C(\S)NCc2ccc(NC(=N)S)cc2)cc1`: the IC50 was > 30 µM.

With `CC(C)(C)c1ccc(C/N=C(\S)NCc2ccc([N+](=O)[O-])cc2)cc1`, the IC50 was > 30 µM.
